Reference: patent US20040197784A1, “Retinoid inducible proteins of vascular smooth muscle cells and uses thereof” (priority 2001, published 2004)

Tests used:
RASMC [1] = assay: Northern blotting of atRA-induced retinoid-response gene mRNA in cultured RASMC; details: for expression of this gene set (the 14 atRA-inducible clones): Northern blot; for Peak Fold Induction: 2×10^−6 mol/L atRA
Experimental: Rat aortic smooth muscle cells (“RASMC”) were stimulated with atRA for the indicated times and then processed for total RNA isolation and Northern blotting. Two duplicate blots were then sequentially hybridized to each of the 14 cDNAs. Scanning densitometry was performed at each time point and normalized to the corresponding GAPDH signal to ascertain the peak mRNA induction value listed in Table 2.
Cultured rat aortic SMC (RASMC) were derived from aortas of male Sprague-Dawley rats by a combined explant-enzymatic digestion procedure as described previously (Miano et al., “Expression of the Smooth Muscle Cell Calponin Gene Marks the Early Cardiac and Smooth Muscle Cell Lineages During Mouse Embryogenesis,” J. Biol. Chem. 271:7095-7103 (1996), which is hereby incorporated by reference in its entirety). These cells were grown in Dulbecco's Modified Eagle's Medium (DMEM) supplemented with 10% fetal bovine serum (FBS), 2 mM L-glutamine and antibiotics. […] Unless indicated otherwise, cells were grown on 100-mm dishes and treated with either 2×10^−mol/L all-trans-retinoic acid (atRA) or an equal volume of dimethylsulfoxide (DMSO) for various times when culture was 70-80% confluent.
Total RNA from cultured RASMC and rat tissues was isolated by the acid phenol-guanidinium isothiocyanate method (Chomczynski et al., “Single-Step Method of RNA Isolation by Acid Guanidinium Thiocyanate-Phenol-Chloroform Extraction,” Anal. Biochem. 162:156-159 (1987), which is hereby incorporated by reference in its entirety). […] Independent samples of RNA were also obtained from RASMC treated for 3, 6, 12, 24, 48, 72, 96, and 120 hr with 2×10^−6 mol/L atRA to obtain a temporal pattern of expression for each positive clone. In some experiments the effects of cycloheximide (CHX, 2.5 μg/ml) on atRA-induced gene expression were examined. […] Total RNA was size-fractionated in 1.2% agarose-formaldehyde gels, transferred to nylon membranes and then hybridized and washed following standard procedures (ExpressHyb™, CLONTECH, Palo Alto, Calif.). A rat glyceraldehyde phosphate dehydrogenase (GAPDH) or 18 S probe was used as an internal control for RNA loading. Autoradiography was performed and exposure times varied so that band intensities could be reliably quantitated using NIH Image 1.60 analysis software.

RASMC [2] = assay: RISC mRNA expression after atRA, Northern blotting, RASMC; assay type: cell-based, rat
Experimental: FIGS. 9A-B show the induction of retinoid inducible serine carboxypeptidase (“RISC”) mRNA expression by atRA in a time-dependent manner. Total RNA isolated from RASMC treated with 2.0 μM atRA for 0, 3, 6, 12, 24, 48, 72, 96, 120 h was analyzed by Northern blotting with a rat RISC cDNA probe. […] Blots were also probed with GAPDH as a control for equal loading for each lane. Data shown are representative of two independent experiments.
(§1) 10-20 μg of total RNA from RASMC, PAC-1 SMC, hCASMC or rat tissues was fractionated on 1.1% agarose gel in the presence of 0.66 mol/L formaldehyde, transferred to nylon membrane, and hybridized with a 405 nt RISC cDNA probe labeled with α-^32P-dCTP. For human tissue Northern blotting, a Human Multiple Tissue Northern Blot was obtained from CLONTECH and hybridized with a human RISC DNA probe, cloned from a human BAC (AC007114; obtained from Research Genetics, Inc., Huntsville, Ala.) by PCR. Hybridizations were carried out in Rapid-hyb buffer (Amersham Life Science, Piscataway, N.J.) or Expresshyb Hybridization Solution (CLONTECH, Palo Alto, Calif.) containing labeled probe (˜2×10^6 cpm/ml) at 62-68° C. for 1-2 h or overnight, depending on the probe used. The blots were then washed under stringent conditions and exposed to Kodak XAR films for different lengths of time. Housekeeping genes used as internal controls for equal RNA loading included glyceraldehyde 3-phosphate dehydrogenase (GAPDH), 18 S rRNA, and β-actin.

PAC-1 SMC = assay: RISC mRNA expression after atRA, Northern blotting, PAC-1 SMC; assay type: cell-based, rat
Experimental: as §1

hCASMC = assay: RISC mRNA expression after atRA, Northern blotting, hCASMC; assay type: cell-based, human
Experimental: as §1

RASMC [3] = assay: Cycloheximide (CHX) effects on atRA inducible gene expression, Northern blot; assay type: cell-based, rat; details: 2.5 μg/ml CHX
Experimental: All 4 genes show atRA-induced mRNA expression after 24 hr stimulation. […] SALF and Src-Suppressed C Kinase Substrate (“SSeCKS”) mRNA induction, however, is protein synthesis-independent. Refer to Table 2 for a complete summary of the CHX sensitivity studies.
To determine whether atRA-induced gene expression required de novo protein synthesis, rat aorta smooth muscle cell tissue was incubated with atRA in the absence or presence of cycloheximide (“CHX”) and then measured the expression of each atRA-inducible gene. […] On the other hand, atRA-induced Stoned B/TFIIAα/β-like factor (“SALF”) and Src Suppressed C Kinase Substrate (“SSeCKS”) mRNA were not blocked with CHX. In fact, there was a slight super-induction of these genes with CHX, shown in FIG. 6, which is a common characteristic of immediate early genes.

[4] = tested on: de novo protein synthesis; assay: CHX effect on de novo protein synthesis and cytotoxicity; assay type: cell-based; details: CHX 2.5 μg/ml
Experimental: In some experiments the effects of cycloheximide (CHX, 2.5 μg/ml) on atRA-induced gene expression were examined.

PAC1 SMC = assay: Growth of PAC1 SMC stably transfected with RISC (cell counts over 5 days); assay type: cell-based, rat; details: three stably transfected RISC cell lines, 10% FBS, vs empty vector (mock)
Experimental: Rat or human RISC is cloned into a suitable mammalian expression plasmid including, but not limited to, pEF1/V5-His, and verified for expression by Western blotting (using an antibody that binds the His tag of the RISC-His fusion protein) of transiently-transfected cells. For transient transfection, subconfluent cells are overlayed with a DNA-calcium-phosphate coprecipitate containing the RISC expression plasmid and then allowed to incubate overnight The following day, cells are washed with phosphate-buffered saline and re-fed fresh growth medium for an additional 24-48 hours whereupon standard cell lysates are made for protein analysis via Western blotting. […] Following two weeks of selection in G418, resistant cell “clones” cartying the RISC-His fusion protein are isolated and expanded for further analysis.
Each of three stably transfected cell lines were grown in the presence of 10% FBS for 5 days and on each day total cell numbers were calculated with a hemocytometer. […] A graph illustrating the effects on SMC growth is shown at FIG. 17.

ERK = assay: RISC attenuation of ERK activity (phospho-ERK immunoblot); assay type: cell-based, rat; details: RISC expressing cells vs mock cells; 30 minutes after serum stimulation
Experimental: Stable cell lines prepared according to Example 3 were grown to subconfluence and made quiescent by serum withdrawal (typically 0.5% FBS for 24-48 hours). Cells were then stimulated with serum or a purified growth factor (PDGF-BB) to stimulate the ERK pathway. At selected times following such stimulation, standard cell extracts were prepared to analyze the activation of ERK as measured by its phosphorylated state with a phospho-specific antibody.

CC1=C(/C=C/C(C)=C/C=C/C(C)=C\C(=O)O)C(C)(C)CCC1 [13-cis RA]
expression of this gene set (the 14 atRA-inducible clones) (RASMC [1]): elevated

CC1=C(/C=C/C(C)=C/C=C/C(C)=C/C(=O)Nc2ccc(O)cc2)C(C)(C)CCC1 [4-Hydroxyphenylretinamide]
expression of this gene set (the 14 atRA-inducible clones) (RASMC [1]): elevated

CC1=C(/C=C/C(C)=C/C=C/C(C)=C/C(=O)O)C(C)(C)CCC1 [atRA, all-trans-retinoic acid]
time of peak increase in RISC mRNA following atRA stimulation (RASMC [2]): around 4 days
RISC mRNA levels (RASMC [2]; 2.0 μM atRA, fresh atRA applied daily, 5 day time course): increased progressively
RISC mRNA following atRA stimulation (PAC-1 SMC): increases in RISC mRNA
RISC mRNA following atRA stimulation (hCASMC): increases in RISC mRNA
Peak Fold Induction (RASMC [1]; Cathepsin-L mRNA, peak at 72 hr, relative to 0 time point): 3.5 (72 hr) fold
Peak Fold Induction (RASMC [1]; Ceruloplasmin mRNA, peak at 72 hr, relative to 0 time point): 2.0 (72 hr) fold
Peak Fold Induction (RASMC [1]; Endolyn mRNA, peak at 96 hr, relative to 0 time point): 2.0 (96 hr) fold
Peak Fold Induction (RASMC [1]; Epithelin mRNA, peak at 48 hr, relative to 0 time point): 2.9 (48 hr) fold
Peak Fold Induction (RASMC [1]; Importin α mRNA, peak at 12 hr, relative to 0 time point): 4.0 (12 hr) fold
Peak Fold Induction (RASMC [1]; LDH-B mRNA, peak at 24 hr, relative to 0 time point): 4.6 (24 hr) fold
Peak Fold Induction (RASMC [1]; LOX-1 mRNA, peak at 3 hr, relative to 0 time point): 7.2 (3 hr) fold
Peak Fold Induction (RASMC [1]; RDH mRNA, peak at 48 hr, relative to 3 hr time point as baseline): >2.8 (48 hr) fold
Peak Fold Induction (RASMC [1]; SALF mRNA, peak at 3 hr, relative to 0 time point): 4.1 (3 hr) fold
Peak Fold Induction (RASMC [1]; SSAT mRNA, peak at 48 hr, relative to 0 time point): 4.8 (48 hr) fold
Peak Fold Induction (RASMC [1]; SSeCKS mRNA, peak at 12 hr, relative to 0 time point): 4.8 (12 hr) fold
Peak Fold Induction (RASMC [1]; VCAM-1 mRNA, peak at 96 hr, relative to 0 time point): 2.5 (96 hr) fold
Peak Fold Induction (RASMC [1]; tTG mRNA, peak at 12 hr, relative to 3 hr time point as baseline): >4.0 (12 hr) fold
Peak Fold Induction (RASMC [1]; α8-integrin mRNA, peak at 72 hr, relative to 0 time point): 2.4 (72 hr) fold

C[C@@H]1C[C@@H]([C@H](O)CC2CC(=O)NC(=O)C2)C(=O)[C@@H](C)C1 [CHX, cycloheximide]
CHX Inhibit (atRA-induced mRNA expression) (RASMC [3]; Cathepsin-L mRNA): Yes
CHX Inhibit (atRA-induced mRNA expression) (RASMC [3]; Ceruloplasmin mRNA): Yes
CHX Inhibit (atRA-induced mRNA expression) (RASMC [3]; Endolyn mRNA): No
CHX Inhibit (atRA-induced mRNA expression) (RASMC [3]; Epithelin mRNA): Yes
CHX Inhibit (atRA-induced mRNA expression) (RASMC [3]; Importin α mRNA): Yes
CHX Inhibit (atRA-induced mRNA expression) (RASMC [3]; LDH-B mRNA): Yes
CHX Inhibit (atRA-induced mRNA expression) (RASMC [3]; LOX-1 mRNA): No
CHX Inhibit (atRA-induced mRNA expression) (RASMC [3]; RDH mRNA): Yes
CHX Inhibit (atRA-induced mRNA expression) (RASMC [3]; SALF mRNA): not blocked and No
CHX Inhibit (atRA-induced mRNA expression) (RASMC [3]; SSAT mRNA): attenuated and completely blocked and Yes
CHX Inhibit (atRA-induced mRNA expression) (RASMC [3]; SSeCKS mRNA): not blocked and No
CHX Inhibit (atRA-induced mRNA expression) (RASMC [3]; VCAM-1 mRNA): Yes
CHX Inhibit (atRA-induced mRNA expression) (RASMC [3]; tTG mRNA): No
CHX Inhibit (atRA-induced mRNA expression) (RASMC [3]; α8-integrin mRNA): attenuated and completely blocked and Yes
overt cytotoxicity [4]: without any signs of overt cytotoxicity
reduction of de novo protein synthesis [4]: more than 90%
CHX effect on atRA-increased RISC expression (RASMC [2]; 24 hours following treatment): No change in RISC expression
CHX effect on atRA-increased RISC expression (RASMC [2]; 48 hr following atRA treatment): blocked increased RISC expression

B1: RISC: retinoid inducible serine carboxypeptidase protein, expressed as RISC-His fusion protein in stably transfected PAC1 SMC (protein, UniProt Q920A6 29-452, looked up)
Retinoid-inducible serine …: LNWREQEGKEVWDYVTVREDARMFWWLYYATNPCKNFSELPLVMWLQGGPGGSSTGFGNFEEIGPLDTRLKPRNTTWLQWASLLFVDNPVGTGFSYVNTTDAYAKDLDTVASDMMVLLKSFFDCHKEFQTVPFYIFSESYGGKMAAGISLELHKAIQQGTIKCNFSGVALGDSWISPVDSVLSWGPYLYSVSLLDNKGLAEVSDIAEQVLNAVNKGFYKEATQLWGKAEMIIEKNTDGVNFYNILTKSTPDTSMESSLEFFRSPLVRLCQRHVRHLQGDALSQLMNGPIKKKLKIIPDDVSWGAQSSSVFISMEEDFMKPVIDIVDTLLELGVNVTVYNGQLDLIVDTIGQESWVQKLKWPQLSRFNQLKWKALYTNPKSSETSAFVKSYENLAFYWILKAGHMVPADQGDMALKMMRLVTQQE
modifications: His tag
notes: retinoid inducible serine carboxypeptidase protein, expressed as RISC-His fusion protein in stably transfected PAC1 SMC
cell growth (total cell numbers by hemocytometer) (PAC1 SMC): significant inhibition in cell growth
phospho-ERK activation (ERK): activated less phospho-ERK
